# Laboratory results from ChEMBL document CHEMBL1129011, “Novel 4,4-bis(trifluoromethyl) imidazolines as stereospecific and orally active acyl coa: Cholesterol acyltransferase (ACAT) inhibitors and antihypercholesterolemic agents” (Bioorg Med Chem Lett, 1996).
# Assays:
# Oryctolagus cuniculus [1] = assay: Percent reduction in serum cholesterol was determined by the oral administration in methylcellulose vehicle at a dose of 2.5 mg/kg/day for 7 days; assay type: functional
# [2] = Compound was evaluated for the inhibition of J774 macrophage cell culture Acyl coenzyme A:cholesterol acyltransferase; assay type: cell-based
# Oryctolagus cuniculus [3] = organism: Oryctolagus cuniculus; assay: Antihypercholesterolemic value for the compound was determined in rabbits; assay type: functional
# Oryctolagus cuniculus [4] = assay: Percent reduction in serum cholesterol was determined by the oral administration in methylcellulose vehicle at a dose of 5 mg/kg/day for 4 day; assay type: functional
# Oryctolagus cuniculus [5] = organism: Oryctolagus cuniculus; assay: Antihypercholesterolemic value for the compound was determined; assay type: functional
Compound,Reduction (Oryctolagus cuniculus [1]),IC50 [2],AHV (Oryctolagus cuniculus [3]),Reduction (Oryctolagus cuniculus [4]),AHV (Oryctolagus cuniculus [5])
CN(C(=O)c1ccc(C#N)cc1)C1N(C)C(c2ccc(C#N)cc2)=NC1(C(F)(F)F)C(F)(F)F (centres undefined),79%,16 µM,>90%,–,–
CN(C(=O)c1ccc(C#N)cc1)[C@@H]1N(C)C(c2ccc(C#N)cc2)=NC1(C(F)(F)F)C(F)(F)F,–,54 µM,–,12%,15%
CN(C(=O)c1ccc(C#N)cc1)[C@H]1N(C)C(c2ccc(C#N)cc2)=NC1(C(F)(F)F)C(F)(F)F,–,11 µM,–,75%,90%
